Assay [1] deals with T1, human α1A-AR S188A/S192A (SS-AA) variant (Homo sapiens, UniProt P35348, S188A/S192A).
T1 construct: expressed in transfected cells; host or cells: COS-7, transient (calcium phosphate)
T1 sequence (P35348 1-466 S188A/S192A): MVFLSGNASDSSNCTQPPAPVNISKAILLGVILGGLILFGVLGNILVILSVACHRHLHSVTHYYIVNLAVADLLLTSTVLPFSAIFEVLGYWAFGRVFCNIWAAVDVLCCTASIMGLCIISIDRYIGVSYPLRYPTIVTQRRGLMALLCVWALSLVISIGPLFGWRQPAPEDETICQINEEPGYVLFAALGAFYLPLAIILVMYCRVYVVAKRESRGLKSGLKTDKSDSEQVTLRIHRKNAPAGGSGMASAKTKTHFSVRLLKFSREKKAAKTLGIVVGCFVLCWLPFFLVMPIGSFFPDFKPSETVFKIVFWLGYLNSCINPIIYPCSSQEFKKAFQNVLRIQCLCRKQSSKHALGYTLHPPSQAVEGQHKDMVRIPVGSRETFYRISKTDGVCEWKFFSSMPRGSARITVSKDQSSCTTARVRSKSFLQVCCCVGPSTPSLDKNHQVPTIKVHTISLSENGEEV
In words: Saturation binding of ^125I-HEAT.

The target in assay [2] is T2, human α1A-AR D106A variant (Homo sapiens, UniProt P35348, D106A).
T2 construct: expressed in transfected cells; host or cells: COS-7, transient (calcium phosphate)
T2 sequence (P35348 1-466 D106A): T1 sequence (P35348 1-466 S188A/S192A) with D106A, A188S, A192S
In words: Saturation binding of ^125I-HEAT.

The target in another assay is T3, α1A-AR (Homo sapiens, UniProt P35348).
T3 sequence (P35348 1-466): T1 sequence (P35348 1-466 S188A/S192A) with A188S, A192S
The assay is classed as binding. More on the design: expressed in transfected cells; host or cells: COS-7, transient (calcium phosphate). To be noted: ^125I-HEAT 0.4 nM, HEAT 5 µM alone. As for the experimental part: Binding experiments were performed in a 100 µL reaction mix at room temperature in buffer composed of 50 mM Tris-HCl, pH 7.4, 10 mM MgCl2, 1 g/L BSA. Reactions were stopped by filtration through 96 GF/C filter plates pre-incubated with 0.5% polyethylenimine.
Binding data were analyzed by nonlinear regression using the KaleidaGraph 4.0 software (Synergy software, Reading, PA). pKD values and Bmax (number of binding sites) were determined by applying a nonlinear regression to data obtained with saturation binding assays. The nonlinear regression used was BS = (Bmax*A)/KD+A, where BS is the specific binding, Bmax the number of binding sites, A the concentration of radioligand, and KD the dissociation constant of the radioligand. Data resulting from competition binding assays were analyzed using the Hill equation for IC50 and curve slope estimations. […] The linear curves were analyzed with IC50 = Ki+(L/KD)*Ki. Dissociation kinetics were analyzed using a simple equation of exponential decay BS * exp (-Koff*t), where BS is the specific binding at time zero and Koff is the dissociation rate constant. Results are expressed as mean ± s.e. mean from n independent experiments. One-way Anova test was used to compare values. A p<0.05 was accepted for statistical significance.

Data on one molecule can be found in publication PMC3723878 (PLoS ONE, 2013).

Where a chain is given by its changes, count along the chain named.

As to `O=C1c2ccccc2CCC1CNCCc1ccc(O)c([125I])c1` (centres unmarked) [125I-HEAT], the “^125I-HEAT Ratio (loss of affinity relative to WT)” value in assay [1] (SS-AA) came to 0.78; in assay [2] (D106A) it was 1.7. For the same molecule, the “^125I-HEAT pKd” value in assay [1] (SS-AA (5.42–5.46), saturation binding, n = 3–6) is 10.15±0.01; in assay [2] (D106A (3.32), saturation binding, n = 3–6), 9.82±0.11. On α1A-AR, the “^125I-HEAT dissociation rate (Koff)” value amounted to 0.00103 s⁻¹.
